Results from US10934326B2, “Peripheral modifications on pocket-redesigned vancomycin analogs synergistically improve antimicrobial potency and durability” (priority 2016, dated 2021).
Entries after “also recorded” stand apart in the source; their conditions may differ. Read-outs that look alike come from different tables or passages of the source.

Key:
[1] = test system: vancomycin-resistant Enterococcus faecalis (VanA VRE, BM4166); assay: In vitro antimicrobial assay (MIC), VanA E. faecalis; type: cell-based; details: for antibiotic susceptibility profile of the strain: VanA E. faecalis BM 4166
From the text: (§1) One day before a study was run, fresh cultures of vancomycin-sensitive Staphylococcus aureus (VSSA strain ATCC 25923), methicillin and oxacillin-resistant Staphylococcus aureus subsp. aureus (MRSA strain ATCC 43300), vancomycin-resistant Enterococcus faecalis (VanA VRE, BM4166), Enterococcus faecium (VanA VRE, ATCC BAA-2317), vancomycin-resistant Enterococcus faecalis (VanB VRE, strain ATCC 51299), Escherichia coli (ATCC 25922), Acinetobacter baumannii (ATCC BAA-1710), Pseudomonas aeruginosa (ATCC 15442), Klebsiella pneumoniae (ATCC 700603) were inoculated and grown in an orbital shaker at 37° C. in 100% Mueller-Hinton broth (VSSA, MRSA and VanB VRE), 100% brain-heart infusion broth (VanA VRE, A. baumannii and K. pneumoniae) or 100% Luria broth (E. coli and P. aeruginosa). After 24 hours, the bacterial stock solutions were serially diluted with the culture medium (10% Mueller-Hinton broth for VSSA, MRSA and VanB VRE or 10% brain-heart infusion broth for VanA VRE A. baumannii and K. pneumoniae or 10% Luria Broth for E. coli and P. aeruginosa) to achieve a turbidity equivalent to a 1:100 dilution of a 0.5 M McFarland solution. This diluted bacterial stock solution was then inoculated in a 96-well V-shaped glass coated microtiter plate, supplemented with serial diluted aliquots of the antibiotic solution in DMSO (4 μL), to achieve a total assay volume of 0.1 mL. The plate was then incubated at 37° C. for 18 hours, after which minimal inhibitory concentrations (MICs) were determined by monitoring the cell growth (observed as a pellet) in the wells.
(§2) The lowest concentration of antibiotic (in μg/mL) capable of eliminating cell growth in the wells is the reported MIC value. The reported MIC values for the vancomycin analogues were determined against vancomycin as a standard in the first well.*
(§3) [*Clinical and Laboratory Standards Institute. Methods for Dilution Antimicrobial Susceptibility Tests for Bacteria That Grow Aerobically; Approved Standard, 7th ed.; CLSI document M07-A8; Clinical and Laboratory Standards Institute: Wayne, Pa., 2009.]

[2] = test system: Enterococcus faecium (VanA VRE, ATCC BAA-2317); assay: In vitro antimicrobial assay (MIC), VanA E. faecium; type: cell-based
From the text: as §1, §2, §3

[3] = test system: VanA VRE (E. faecalis BM 4166 and E. faecium ATCC BAA-2317); assay: Cell wall biosynthesis inhibition assay (accumulation of UDPMurNAc-pp 19); type: cell-based, Enterococcus faecalis; Enterococcus faecium; details: 35 μg/mL, tetracycline pretreated VanA VRE, 30 minutes, 37° C.
From the text: The inhibition of bacterial cell wall synthesis was established in an assay that quantitates the accumulation of the peptidoglycan precursor UDP-N-acetyl-muramyl-depsipentapeptide (Compound 19, UDPMurNAc-pp), resulting from inhibited cell wall incorporation following antibiotic treatment. […] This procedure was reduced in scale and modified to enlist reverse-phase HPLC separation, UV detection, and calibration curve determination of the amount of isolated 19, permitting use with limited sample sizes. A larger scale isolation and full characterization of 19 provided the material needed to establish a linear calibration curve.
The bacterial suspension was heated at 100° C. for 15 minutes to release cytosolic 19. The entire supernatant was analyzed by semi-preparative reverse-phase HPLC with a single injection and the amount of 19 was quantitated with use of the calibration curve.
Cultures of vancomycin-resistant Enterococcus faecalis (VanA VRE, BM4166) and Enterococcus faecium (VanA VRE, ATCC BAA-2317) were inoculated and grown in an orbital shaker at 37° C. in 100% brain-heart infusion broth for 12 hours. The above bacterial solution was subjected to a subculture to obtain fresh mid-log phase bacterial cells (total volume of bacterial suspension=5 mL, incubation time=6 hours, OD600=0.6). […] Vancomycin analogues were added and the mixture was incubated at 37° C. for a further 30 minutes.
After the bacteria were harvested (3000 rpm, 4° C., 20 minutes), this bacterial precipitate was washed and resuspended in 5 mM glucose and 5 mM HEPES buffer (500 μL, 1:1, pH=7.2). This bacterial suspension was heated at 100° C. for 15 minutes and centrifuged (13000 rpm, 25° C., 10 minutes). […] [*****Allen et al., Antimicrob. Agents Chemother. 1996, 40(10):2356-2362]; Liu et al., J. Am. Chem. Soc. 2001, 123:9916-9917.] The amount of UDP Mur N-Ac pentapeptide (19) was quantified by use of calibration curves for E. faecalis BM4166, and for E. faecium ATCC BAA-2317 based on the area under the curve (AUC).

[4] = test system: red blood cells (pig whole blood); assay: Hemolysis assay; type: cell-based; details: assay time extended to 24 hours
Description: The blood cells in pig whole blood (2 mL, Pel-Free Biologicals, non-sterile, sodium citrate) were harvested (3000 rpm, 4° C., 20 minutes), and the red blood precipitate was washed and resuspended in phosphate buffered saline (pH 7.4). This diluted red blood cell stock solution (384 μL) was incubated with the antibiotic solution in DMSO (16 μL) in a 1 mL microtube to achieve the final concentration of the test compounds. […]
The solution was diluted with phosphate buffer saline (pH 7.4, 200 μL) at 25° C. and centrifuged (3000 rpm, 4° C., 20 minutes). The supernatant (200 μL) was transferred to a microtiter plate. A positive control (0.2% vol % Triton® X-100, 100% total hemolysis) and the negative control (no antibiotic, 0% hemolysis) were prepared. A350 was measured using a microplate reader (Molecular Devices®, Max Gemini EX). The % hemolysis was determined by calculating the following equation shown below (eq. 1).
Although the differences in mammalian and bacterial cell wall composition are extensive, including the more highly anionic composition of the bacterial cell wall responsible for a preferential and differential cation binding, lysis of mammalian cell membranes (red blood cells) are potential off-target consequences of cationic compounds that impact bacterial cell membrane integrity. […]

[5] = test system: vancomycin-sensitive Staphylococcus aureus (VSSA strain ATCC 25923); details: previously reported data; cited from earlier work
[6] = test system: methicillin and oxacillin-resistant Staphylococcus aureus subsp. aureus (MRSA strain ATCC 43300); details: previously reported data; cited from earlier work
[7] = test system: vancomycin-resistant Enterococcus faecalis (VanA VRE, BM4166); details: BM 4166; previously reported data; cited from earlier work
[8] = test system: Enterococcus faecium (VanA VRE, ATCC BAA-2317); details: previously reported data; cited from earlier work
[9] = test system: vancomycin-resistant Enterococcus faecalis (VanB VRE, strain ATCC 51299); details: previously reported data; cited from earlier work
[10] = D-Ala-D-Lac versus D-Ala-D-Ala; cited from earlier work
[11] = test system: VanA VRE (E. faecalis BM 4166 and E. faecium ATCC BAA-2317); assay: Cell wall permeability assay (propidium iodide uptake); type: cell-based, Enterococcus faecalis; Enterococcus faecium; details: 10 μM compound
From the text: The effect of the compounds on cell membrane permeability was examined by measuring cytoplasmic membrane uptake of the fluorescent probe propidium iodide in the same VanA vancomycin-resistant E. faecalis (BM 4166) and E. faecium (ATCC BAA-2317) strains. This fluorescent probe only enters cells with permeabilized cell membranes and is detected by the emission of fluorescence upon intracellular nucleic acid binding [Boulos et al., J Microbiol Methods 1999, 37(1):77-86].
Fresh, mid-log phase VanA VRE in pH 7.2 buffer at 25° C. were preincubated with propidium iodide (10 μM) for 5 minutes before the test compounds were added, monitoring the fluorescence emission at 617 nm (excitation at 535 nm) over time, both pre (5 minutes) and post (15 minutes) compound addition. Rapid and sustained increases in fluorescence intensity are observed immediately upon addition of test compounds that induce bacterial cell membrane permeability.
One day before a study was run, cultures of vancomycin-resistant Enterococcus faecalis (VanA VRE, BM4166) and Enterococcus faecium (VanA VRE, ATCC BAA-2317), were inoculated and grown in an orbital shaker at 37° C. in 100% brain-heart infusion broth for 12 hours. The above bacterial solution was subjected to a subculture to obtain fresh mid-log phase bacterial cells (total volume of bacterial suspension=7 mL, incubation time=6 hours, OD600=0.6). After the cultured bacteria were harvested (3000 rpm, 4° C., 20 minutes), the white bacterial precipitate was washed and resuspended in 5 mM glucose and 5 mM HEPES buffer (1:1, 500 μL, pH=7.2).
This bacterial suspension (130 μL) was charged into a 96-well black plate with a clear bottom (Corning 3650). The propidium iodide dye (10 μL, 150 μM DMSO solution) was added to the above suspension and the fluorescence was monitored at 25° C. for 5 minutes at 30 second intervals using a microplate reader (Molecular Devices®, Max Gemini EX) at an excitation wavelength of 535 nm and an emission wavelength of 617 nm. The test compound (150 μM, 10 μL) was added to the cell suspension and the fluorescence was monitored at 25° C. for an additional 15 minutes.

[12] = test system: VanA VRE (E. faecalis BM4166 and E. faecium ATCC BAA-2317); assay: Resistance development study (serial passaging at 0.5×MIC); type: cell-based, Enterococcus faecalis; Enterococcus faecium; details: 0.5×MIC serial exposure, MICs monitored daily
Description: However, an additional and even more important feature of the expression of multiple independent mechanisms of action is a mechanism's impact on the rate at which bacterial resistance may emerge.
The MICs of the vancomycin analogues against vancomycin-resistant Enterococcus faecalis (VanA VRE, BM4166) and Enterococcus faecium (VanA VRE, ATCC BAA-2317) were determined. […] A new MIC assay was performed with the same protocol. This process was repeated for 50 passages, and the fold increase in MIC was determined at each passage. [****Pollard et al., J. Antimicrob. Chemother. 2012, 67:2665-2672.]

Structure (SMILES)	Antimicrobial Activity, MIC, VanA E. faecalis ([1]; BM 4166) [µg/mL]	antibiotic susceptibility profile of the strain [1]	Antimicrobial Activity, MIC, VanA E. faecium ([2]; ATCC BAA-2317) [µg/mL]	antibiotic susceptibility profile of the strain ([2]; VanA E. faecium ATCC BAA-2317)	inhibition of bacterial cell wall synthesis (accumulation of 19) [3]	red blood cell hemolytic activity, extended exposure [4]	Antimicrobial Activity, MIC, sensitive S. aureus [5] [µg/mL]	Antimicrobial Activity, MIC, MRSA S. aureus [6] [µg/mL]	Antimicrobial Activity, MIC, VanA E. faecalis [7] [µg/mL]	Antimicrobial Activity, MIC, VanA E. faecium [8] [µg/mL]	Antimicrobial Activity, MIC, VanB E. faecalis [9] [µg/mL]	reduction of binding affinity for the altered ligand [10] [fold]	MIC ([1]; Enterococcus faecalis, VRE, read-out: Antimicrobial Activity, MIC, VanA E. faecalis) [µg/mL]	MIC ([2]; Enterococcus faecium, read-out: Antimicrobial Activity, MIC, VanA E. faecium) [µg/mL]	induced cell membrane permeability (propidium uptake) [11]	emergence of resistance on serial passaging [12]
CN[C@H](CC(C)C)C(=O)N[C@H]1C(=O)N[C@@H](CC(N)=O)C(=O)N[C@H]2C(=O)N[C@H]3C(=O)N[C@H](C(=O)N[C@H](C(=O)O)c4cc(O)cc(O)c4-c4cc3ccc4O)[C@H](O)c3ccc(c(Cl)c3)Oc3cc2cc(c3O[C@@H]2O[C@H](CO)[C@@H](O)[C@H](O)[C@H]2O[C@H]2C[C@](C)(N)[C@H](O)[C@H](C)O2)Oc2ccc(cc2Cl)[C@H]1O [Compound 1, vancomycin]	250	resistant	250	resistant	do not effectively inhibit bacterial cell wall synthesis	no different from the control tigecycline	0.5	0.5	250	250	8	1000	–	–	–	–
CCCCCCCCCCCCCC[N+](C)(C)CCCNC(=O)[C@H]1NC(=O)[C@H]2NC(=O)[C@@H](NC(=O)[C@@H]3NC(=O)[C@H](CC(N)=O)NC(=O)[C@H](NC(=O)[C@@H](CC(C)C)NC)[C@H](O)c4ccc(c(Cl)c4)Oc4cc3cc(c4OC3OC(CO)C(O)[C@H](O)[C@@H]3O[C@H]3CC(C)(N)[C@H](O)[C@H](C)O3)Oc3ccc(cc3Cl)[C@H]2O)c2ccc(O)c(c2)-c2c(O)cc(O)cc21 (stereo partly drawn) [Compound 12]	–	–	–	–	–	performed worse than the control daptomycin	–	–	–	–	–	–	2	2	produced pronounced, rapid cell membrane permeability	–
CCCCCCCCCC(=O)N[C@@H](Cc1c[nH]c2ccccc12)C(=O)N[C@H](CC(N)=O)C(=O)N[C@@H](CC(=O)O)C(=O)N[C@@H]1C(=O)NCC(=O)N[C@@H](CCCN)C(=O)N[C@@H](CC(=O)O)C(=O)N[C@H](C)C(=O)N[C@@H](CC(=O)O)C(=O)NCC(=O)N[C@H](CO)C(=O)N[C@@H]([C@H](C)CC(=O)O)C(=O)N[C@@H](CC(=O)c2ccccc2N)C(=O)O[C@@H]1C [daptomycin]	–	sensitive	–	–	–	–	–	–	–	–	–	–	–	–	–	arises much faster and is much more pronounced; also recorded: arise much faster and was more pronounced
